Experimental data from patent publication US20230085307A1, “PYRIDAZINONE COMPOUND AND HERBICIDE” (NISSAN CHEMICAL CORPORATION, priority 2019, published 2023).

test system: Italian ryegrass; assay: Test Example 5: herbicidal effect by foliage application, plastic box (Table 20, symbol K); format: in vivo, Italian ryegrass (Lolium multiflorum); details: foliage application, 320 g/ha, evaluated three weeks after application
Summary of the method: (§1)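 Sow seeds spot-wise in sterilized diluvial soil; cover with ~1.5 cm soil. Grow 14 days in greenhouse, 25° C. to 30° C. Spray foliage with emulsion diluted to predetermined amount. Rate effect after 3 weeks.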

Row | SMILES | herbicidal effect on K: Italian ryegrass
1 | C=CCOc1ccc(-c2sc3ccc(F)cc3c2-c2c(O)c(C)nn(C)c2=O)cc1 [2-051] | 4 (Herbicidal rate of 70% or more and less than 90%)
2 | C#CCOc1ccc(-c2sc3ccc(F)cc3c2-c2c(O)c(C)nn(C)c2=O)cc1 [2-053] | 5 (Herbicidal rate of 90% or more (almost completely withered))

test system: blackgrass; assay: Test Example 5: herbicidal effect by foliage application, plastic box (Table 20, symbol J); format: in vivo, blackgrass (Alopecurus myosuroides); details: foliage application, 320 g/ha, evaluated three weeks after application
Summary of the method: as §1

Row | SMILES | herbicidal effect on J: blackgrass
3 | C=CCOc1ccc(-c2sc3ccc(F)cc3c2-c2c(O)c(C)nn(C)c2=O)cc1 [2-051] | 5 (Herbicidal rate of 90% or more (almost completely withered))
4 | C#CCOc1ccc(-c2sc3ccc(F)cc3c2-c2c(O)c(C)nn(C)c2=O)cc1 [2-053] | 4 (Herbicidal rate of 70% or more and less than 90%)

test system: blackgrass; assay: Test Example 4: herbicidal effect by soil treatment (Table 19, symbol J); format: in vivo, blackgrass (Alopecurus myosuroides); details: 320 g/ha
Summary of the method: (§2)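 Applied as a water-diluted emulsion, the compound was sprayed onto soil covering newly sown seeds. Evaluation came three weeks after application, in a greenhouse held at 25° C. to 30° C.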

Row | SMILES | herbicidal effect rating, J: blackgrass
5 | C=CCOc1ccc(-c2sc3ccc(F)cc3c2-c2c(O)c(C)nn(C)c2=O)cc1 [2-051] | 0 (Herbicidal rate of 5% or less (almost no effect))
6 | C#CCOc1ccc(-c2sc3ccc(F)cc3c2-c2c(O)c(C)nn(C)c2=O)cc1 [2-053] | 0 (Herbicidal rate of 5% or less (almost no effect))

test system: redroot pigweed; assay: Test Example 5: herbicidal effect by foliage application, plastic box (Table 20, symbol N); format: in vivo, redroot pigweed (Amaranthus retroflexus); details: foliage application, 320 g/ha, evaluated three weeks after application
Summary of the method: as §1

Row | SMILES | herbicidal effect on N: redroot pigweed
7 | C=CCOc1ccc(-c2sc3ccc(F)cc3c2-c2c(O)c(C)nn(C)c2=O)cc1 [2-051] | 5 (Herbicidal rate of 90% or more (almost completely withered))
8 | C#CCOc1ccc(-c2sc3ccc(F)cc3c2-c2c(O)c(C)nn(C)c2=O)cc1 [2-053] | 5 (Herbicidal rate of 90% or more (almost completely withered))

test system: velvetleaf; assay: Test Example 5: herbicidal effect by foliage application, plastic box (Table 20, symbol M); format: in vivo, velvetleaf (Abutilon theophrasti); details: foliage application, 320 g/ha, evaluated three weeks after application
Summary of the method: as §1

Row | SMILES | herbicidal effect on M: velvetleaf
9 | C=CCOc1ccc(-c2sc3ccc(F)cc3c2-c2c(O)c(C)nn(C)c2=O)cc1 [2-051] | 4 (Herbicidal rate of 70% or more and less than 90%)
10 | C#CCOc1ccc(-c2sc3ccc(F)cc3c2-c2c(O)c(C)nn(C)c2=O)cc1 [2-053] | 5 (Herbicidal rate of 90% or more (almost completely withered))

test system: persian speedwell; assay: Test Example 4: herbicidal effect by soil treatment (Table 19, symbol R); format: in vivo, Persian speedwell (Veronica persica); details: 320 g/ha
Summary of the method: as §2

Row | SMILES | herbicidal effect rating, R: persian speedwell
11 | C=CCOc1ccc(-c2sc3ccc(F)cc3c2-c2c(O)c(C)nn(C)c2=O)cc1 [2-051] | 4 (Herbicidal rate of 70% or more and less than 90%)
12 | C#CCOc1ccc(-c2sc3ccc(F)cc3c2-c2c(O)c(C)nn(C)c2=O)cc1 [2-053] | 5 (Herbicidal rate of 90% or more (almost completely withered))

test system: late watergrass; assay: Test Example 2: herbicidal activity, application during weed generation under submerged conditions (Table 17, symbol A); format: in vivo, late watergrass (Echinochloa oryzicola); details: AAH 320 g/ha; application during weed generation, submerged conditions
Summary of the method: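 Herbicide emulsion, diluted with water to the chosen amount, is applied onto 4 cm floodwater over alluvial soil where the weeds were co-sown and raised at 25–30° C. Application timing: 1–2 leaves. Assessment: three weeks afterwards.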

Row | SMILES | herbicidal effect rating, A: late watergrass
13 | C=CCOc1ccc(-c2sc3ccc(F)cc3c2-c2c(O)c(C)nn(C)c2=O)cc1 [2-051] | 0 (Herbicidal rate of 5% or less (almost no effect))
14 | C#CCOc1ccc(-c2sc3ccc(F)cc3c2-c2c(O)c(C)nn(C)c2=O)cc1 [2-053] | 0 (Herbicidal rate of 5% or less (almost no effect))

test system: late watergrass; assay: Test Example 1: herbicidal activity, application before weed generation under submerged conditions (Table 16, symbol A); format: in vivo, late watergrass (Echinochloa oryzicola); details: 320 g/ha applied herbicide
Summary of the method: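 Alluvial soil was flooded to 4 cm depth, weed seeds were sown mixed and 2.5-leaf rice seedlings were transplanted. On sowing day, the compound's emulsion, diluted in water to a set dose, was applied to the water surface. Plants grew at 25–30 °C and were scored 0–5 after three weeks.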

Row | SMILES | Herbicidal effect on A: late watergrass (grade 0-5)
15 | C=CCOc1ccc(-c2sc3ccc(F)cc3c2-c2c(O)c(C)nn(C)c2=O)cc1 [2-051] | 3 (Herbicidal rate of 40% or more and less than 70%)
16 | C#CCOc1ccc(-c2sc3ccc(F)cc3c2-c2c(O)c(C)nn(C)c2=O)cc1 [2-053] | 2 (Herbicidal rate of 20% or more and less than 40%)

test system: lambsquarters; assay: Test Example 5: herbicidal effect by foliage application, plastic box (Table 20, symbol O); format: in vivo, lambsquarters (Chenopodium album); details: foliage application, 320 g/ha, evaluated three weeks after application
Summary of the method: as §1

Row | SMILES | herbicidal effect on O: lambsquarters
17 | C=CCOc1ccc(-c2sc3ccc(F)cc3c2-c2c(O)c(C)nn(C)c2=O)cc1 [2-051] | 5 (Herbicidal rate of 90% or more (almost completely withered))
18 | C#CCOc1ccc(-c2sc3ccc(F)cc3c2-c2c(O)c(C)nn(C)c2=O)cc1 [2-053] | 5 (Herbicidal rate of 90% or more (almost completely withered))

test system: velvetleaf; assay: Test Example 4: herbicidal effect by soil treatment (Table 19, symbol M); format: in vivo, velvetleaf (Abutilon theophrasti); details: 320 g/ha
Summary of the method: as §2

Row | SMILES | herbicidal effect rating, M: velvetleaf
19 | C=CCOc1ccc(-c2sc3ccc(F)cc3c2-c2c(O)c(C)nn(C)c2=O)cc1 [2-051] | 3 (Herbicidal rate of 40% or more and less than 70%)
20 | C#CCOc1ccc(-c2sc3ccc(F)cc3c2-c2c(O)c(C)nn(C)c2=O)cc1 [2-053] | 3 (Herbicidal rate of 40% or more and less than 70%)

test system: Italian ryegrass; assay: Test Example 4: herbicidal effect by soil treatment (Table 19, symbol K); format: in vivo, Italian ryegrass (Lolium multiflorum); details: 320 g/ha
Summary of the method: as §2

Row | SMILES | herbicidal effect rating, K: Italian ryegrass
21 | C=CCOc1ccc(-c2sc3ccc(F)cc3c2-c2c(O)c(C)nn(C)c2=O)cc1 [2-051] | 0 (Herbicidal rate of 5% or less (almost no effect))
22 | C#CCOc1ccc(-c2sc3ccc(F)cc3c2-c2c(O)c(C)nn(C)c2=O)cc1 [2-053] | 0 (Herbicidal rate of 5% or less (almost no effect))

test system: barnyard grass; assay: Test Example 3: herbicidal effect by foliage application, Wagner pot (Table 18, symbol H); format: in vivo, barnyard grass (Echinochloa crus-galli); details: 320 g/ha
Summary of the method: (§3)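 Plants were sown in alluvial soil held under 0.1–0.5 cm standing water and grown 14 days in a greenhouse at 25–30 °C. An emulsifiable formulation, water-diluted to the set dose, was then sprayed onto the foliage, and effects were scored three weeks later using previously defined criteria.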

Row | SMILES | herbicidal effect on H (barnyard grass), rating 0-5
23 | C=CCOc1ccc(-c2sc3ccc(F)cc3c2-c2c(O)c(C)nn(C)c2=O)cc1 [2-051] | 5 (Herbicidal rate of 90% or more (almost completely withered))
24 | C#CCOc1ccc(-c2sc3ccc(F)cc3c2-c2c(O)c(C)nn(C)c2=O)cc1 [2-053] | 5 (Herbicidal rate of 90% or more (almost completely withered))

test system: lambsquarters; assay: Test Example 4: herbicidal effect by soil treatment (Table 19, symbol O); format: in vivo, lambsquarters (Chenopodium album); details: 320 g/ha
Summary of the method: as §2

Row | SMILES | herbicidal effect rating, O: lambsquarters
25 | C=CCOc1ccc(-c2sc3ccc(F)cc3c2-c2c(O)c(C)nn(C)c2=O)cc1 [2-051] | 5 (Herbicidal rate of 90% or more (almost completely withered))
26 | C#CCOc1ccc(-c2sc3ccc(F)cc3c2-c2c(O)c(C)nn(C)c2=O)cc1 [2-053] | 3 (Herbicidal rate of 40% or more and less than 70%)

test system: windgrass; assay: Test Example 4: herbicidal effect by soil treatment (Table 19, symbol L); format: in vivo, windgrass (Apera spica-venti); details: 320 g/ha
Summary of the method: as §2

Row | SMILES | herbicidal effect rating, L: windgrass
27 | C=CCOc1ccc(-c2sc3ccc(F)cc3c2-c2c(O)c(C)nn(C)c2=O)cc1 [2-051] | 3 (Herbicidal rate of 40% or more and less than 70%)
28 | C#CCOc1ccc(-c2sc3ccc(F)cc3c2-c2c(O)c(C)nn(C)c2=O)cc1 [2-053] | 0 (Herbicidal rate of 5% or less (almost no effect))

test system: southern crabgrass; assay: Test Example 4: herbicidal effect by soil treatment (Table 19, symbol F); format: in vivo, southern crabgrass (Digitaria ciliaris); details: 320 g/ha
Summary of the method: as §2

Row | SMILES | herbicidal effect rating, F: southern crabgrass
29 | C=CCOc1ccc(-c2sc3ccc(F)cc3c2-c2c(O)c(C)nn(C)c2=O)cc1 [2-051] | 5 (Herbicidal rate of 90% or more (almost completely withered))
30 | C#CCOc1ccc(-c2sc3ccc(F)cc3c2-c2c(O)c(C)nn(C)c2=O)cc1 [2-053] | 0 (Herbicidal rate of 5% or less (almost no effect))

test system: Chinese sprangletop; assay: Test Example 3: herbicidal effect by foliage application, Wagner pot (Table 18, symbol D); format: in vivo, chinese sprangletop (Leptochloa chinensis); details: 320 g/ha
Summary of the method: as §3

Row | SMILES | herbicidal effect on D (Chinese sprangletop), rating 0-5
31 | C=CCOc1ccc(-c2sc3ccc(F)cc3c2-c2c(O)c(C)nn(C)c2=O)cc1 [2-051] | 5 (Herbicidal rate of 90% or more (almost completely withered))
32 | C#CCOc1ccc(-c2sc3ccc(F)cc3c2-c2c(O)c(C)nn(C)c2=O)cc1 [2-053] | 5 (Herbicidal rate of 90% or more (almost completely withered))
